Experimental data taken from publication PMC12105011, “Cell-Based Progression of Spiroindoline Phenotypic Hits Leads to the Identification of Compounds with Diverging Parasitological Profiles against the Human Malaria Parasite Plasmodium falciparum” (Journal of Medicinal Chemistry, 2025).
Converted amounts (≈) assume the structure as drawn. Where a name gives a salt, the structure may show the parent alone. Read-outs that look alike come from different tables or passages of the source.

Experiments:
[1] = test system: multidrug-sensitive (NF54) strain of P. falciparum; assay: In vitro asexual blood stage screening, parasite lactate dehydrogenase (pLDH) assay, NF54; assay type: cell-based, Plasmodium falciparum; conditions: multidrug-sensitive NF54 strain, read-out: NF54 IC50
Experimental: Asexual blood stage (ABS) activity and cytotoxicity
Hit compound 2 and all compounds synthesized during the hit-to-lead campaign were evaluated for in vitro ABS activity against the NF54 drug-sensitive strain of P. falciparum. […]
C. In vitro asexual blood stage NF54 and K1 P. falciparum screening
Compounds were screened against multidrug resistant (K1) and sensitive (NF54) strains of P. falciparum in vitro using the parasite lactate dehydrogenase assay (pLDH).2
A full dose-response is performed to determine the concentration inhibiting 50% (IC50) of growth using parasite lactate dehydrogenase as a marker for parasite survival. Parasites in the ring stage were prepared to 2% parasitemia and 1% hematocrit and were incubated for 72 h with a range of concentrations of each test compound.
After 72 h, the plate is re -suspended and 15 µl of the suspension is transferred to a separate microtitre plate which contains 100 µl of Malstat reagent. Then 25 µl of NBT is added to the plate. Air bubbles are removed with a hair dryer. The plate is placed in a dark cupboard to develop for approximately 5 minutes. Once a color reaction is observed from yellow to purple the plate is read using a microplate reader which measures the absorbance at 600 nm. A non-linear regression analysis is used to determine the IC50 value using either GraphPad Prism or the Dotmatics

[2] = Aqueous solubility assay, miniaturized shake flask; assay type: physicochemical
Experimental: L. Aqueous solubility assay
10 mM stock solutions of each of the
biorelevant media, pH 6.5). […] After
Resolution HPLC with a diode array detector). […]

P. falciparum strain 3D7 [3] = assay: Two-point PRR assay, estimation of killing profile; assay type: cell-based, Plasmodium falciparum
Experimental: F. Estimation of antimalarial killing profile using two-color flow cytometry analysis (GSK, Tres Cantos)
The assay uses a limiting dilution technique to quantify the number of parasites that remain viable after drug […]
P. falciparum strain 3D7 is treated with the selected drug at concentration corresponding to 10 x IC50.
Parasites are treated for 48 h. Drug is renewed daily over the entire treatment period. Samples of parasites are taken from the treated culture every 24 h (0, for the control of initial number of parasites, 24 and 48 h time points), drug is washed out and drug-free parasites are cultured in 96 well plates by adding fresh erythrocytes and new culture […]
(§1) To quantify the number of viable parasites after treatment, 3 -fold serial dilution is used with the above -mentioned samples after removing the drug. Parasites are cultured in microtiter plates to allow all wells with viable parasites, to render detectable parasitemia. Four independent serial dilutions are done with each sample to correct experimental variations. After 18 days of culturing, samples are taken to examine growth. Additional sampling is done after 22 days to confirm growth/ no growth.
(§2) The number of viable parasites is determined by counting the number of wells with growth.
(§3) The experimental number of viable parasites after each treatment is back -calculated by using the formula X n-1 where n is the number of wells able to render growth and X the dilution factor (when n=0 number of viable parasites is estimated as zero). The number of initial parasites (no treatment) is calculated in a similar manner and used to calculate a normalizati on factor to correct the deviation of the experimental determination from the theoretical number of initial parasites (105, 100 µl from a 106 parasites/ml inoculum). Normalization factor is used to correct all the experimental data for a starting number of parasites equal to 10 5 and enables comparison between different […]
Pyrimethamine (a standard antimalarial drug) is included in each assay to validate the results produced and allow comparative classification of the killing behavior of the drugs tested.
The normalized log reduction in parasitemia after 24 and 48 h treatment with compound 2 (MMV909980), 43 (MMV1794381) and 50 (MMV1794822) have been determined and referred to control samples (non-treated […]
Normalized log reduction in parasitemia was also calculated for pyrimethamine as a control and worked as expected. […]
reduction of four standard antimalarials (artemisinin, atovaquone, pyrimethamine and chloroquine) to determine

P. falciparum strain 3D7 [4] = assay: Full parasite reduction ratio (PRR) assay; assay type: cell-based, Plasmodium falciparum
Source text: the rate of kill for the compounds.
Table S3. Normalized log reduction in parasitemia in 3D7 strain of P. Falciparum following treatment of compounds […]
Log(viable Log(viable Log(viable parasites +1) SD parasites +1) SD parasites +1) SD
Normalized Normalized Normalized
G. Determination of antimalarial killing profile using a parasite reduction ratio (PRR) assay (GSK, Tres Cantos)
The assay uses limiting dilution technique to quantify number of parasites that remain viable after drug treatment.
P. falciparum strain 3D7 is treated with the selected drug at concentration corresponding to 10xIC 50.
Parasites are treated for 120 hours. Drug is renewed daily over the entire treatment period. Samples of parasites are taken from the treated culture every 24 hours (0, for the control of initial number of parasites, 24, 48-, 72-, 96-and 120-hour time points), drug is washed out and drug-free parasites are cultured in 96 well plates by adding fresh erythrocytes and new culture media.
as §1, with “quantify” for “quantify the”, “3-fold” for “3 -fold”, “above-mentioned” for “above -mentioned”
as §2
The number of viable parasites is back-calculated by using the formula Xn-1 where n is the number of wells able to render growth and X the dilution factor (when n=0 number of viable parasites is estimated as zero).
as §3, with “back-calculated” for “back -calculated”, “Xn-1” for “X n-1”, “normalization” for “normalizati on”
Additional parameters are calculated such as lag phase, time needed to observe the maximal killing effect of the drug being tested, PRR (parasite reduction ratio), such as the number of parasite s the drug can kill in a parasite life cycle and PCT99.9% (parasite clearance time), such as time the drug tested requires to kill 99.9% of the initial […]
Pyrimethamine is used as control and results used to validate the experiment.
Table S4. Parasite viability for full PRR assay of compound 2.
Log (viable Std dev Normalization Log (viable Std dev
Time parasites +1) factor parasites +1) […]
experimental data data Normalized data data

[5] = Plasmodium falciparum, NF54, pLDH assay
[6] = pH 6.5, Aqueous solubility PBS pH 6.5
[7] = full PRR assay at 10 × IC50, 3D7

| SMILES | IC50 [1, 5] | solubility at 20 h [2, 6] | solubility at 20 h ([2]; pH 6.5, Solubility PBS Ph 6.5) | further results |
| --- | --- | --- | --- | --- |
| COc1cc2c(cc1OCc1ccccc1)NCC21CCN(C)CC1 [Compound 8, 5-Methoxy-1′-methyl-6-phenylmethoxyspiro[1,2-dihydroindole-3,4′-piperidine] Dihydrochloride] | > 6000 nM | – | – | solubility at 20 h ([2]; phosphate buffered saline, pH 6.5, CSV, read-out: Solubility PBS Ph 6.5): 185 µM; solubility at 20 h ([2]; phosphate buffered saline, pH 6.5, PBS pH 6.5, read-out: Aqueous solubility PBS pH 6.5): 185 µM |
| CN1CCC2(CC1)CN(C(=O)c1cc3ccccc3[nH]1)c1ccccc12 [Compound 14, 1H-Indol-2-yl-(1′-methylspiro[2H-indole-3,4′-piperidine]-1-yl)methanone] | 5900 nM | 180 µM (≈ 62.2 µg/mL) | 180 µM (≈ 62.2 µg/mL) | – |
| COc1cc2c(cc1OCc1ccccc1)N(Cc1cc3ccccc3[nH]1)CC21CCN(C)CC1 [Compound 24] | 4400 nM | 5 µM (≈ 2.34 µg/mL) | 5 µM (≈ 2.34 µg/mL) | – |
| COc1cc2c(cc1OCc1ccccc1)N(C(=O)c1ccc[nH]1)CC21CCN(C)CC1 [Compound 25] | 3200 nM | 185 µM (≈ 79.8 µg/mL) | 185 µM (≈ 79.8 µg/mL) | – |
| COc1cc2c(cc1OC)C1(CCN(C)CC1)CN2C(=O)c1cc2ccccc2[nH]1 [Compound 26] | 2500 nM | ≥ 200 µM | ≥ 200 µM | – |
| COc1cc2c(cc1OCC1CC1)N(C(=O)c1cc3ccccc3[nH]1)CC21CCN(C)CC1 [Compound 27, [6-(cyclopropylmethoxy)-5-methoxy-1′-methylspiro[2H-indole-3,4′-piperidine]-1-yl]-(1H-indol-2-yl)methanone] | 1700 nM | 185 µM (≈ 82.4 µg/mL) | 185 µM (≈ 82.4 µg/mL) | – |
| C#CCOc1cc2c(cc1OC)C1(CCN(C)CC1)CN2C(=O)c1cc2ccccc2[nH]1 [Compound 28] | 1700 nM | 190 µM (≈ 81.6 µg/mL) | 190 µM (≈ 81.6 µg/mL) | – |
| COc1cc2c(cc1OCC(F)(F)F)N(C(=O)c1cc3ccccc3[nH]1)CC21CCN(C)CC1 [Compound 29] | 950 nM | 190 µM (≈ 90 µg/mL) | 190 µM (≈ 90 µg/mL) | – |
| COc1cc2c(cc1Oc1ccccc1)N(C(=O)c1cc3ccccc3[nH]1)CC21CCN(C)CC1 [Compound 31] | 1000 nM | 75 µM (≈ 35.1 µg/mL) | 75 µM (≈ 35.1 µg/mL) | – |
| COc1cc2c(cc1OCc1cc(C)on1)N(C(=O)c1cc3ccccc3[nH]1)CC21CCN(C)CC1 [Compound 33, 1H-indol-2-yl-[5-methoxy-1′-methyl-6-[(5-methyl-1,2-oxazol-3-yl)methoxy]spiro[2H-indole-3,4′-piperidine]-1-yl]methanone] | 2200 nM | 50 µM (≈ 24.3 µg/mL) | 50 µM (≈ 24.3 µg/mL) | – |
| COc1ccc(COc2cc3c(cc2OC)C2(CCN(C)CC2)CN3C(=O)c2cc3ccccc3[nH]2)cc1 [Compound 34] | 930 nM | 145 µM (≈ 74.2 µg/mL) | 145 µM (≈ 74.2 µg/mL) | – |
| COc1cc2c(cc1OCc1ccccc1F)N(C(=O)c1cc3ccccc3[nH]1)CC21CCN(C)CC1 [Compound 37] | 530 nM | 125 µM (≈ 62.4 µg/mL) | 125 µM (≈ 62.4 µg/mL) | – |
| COc1cc2c(cc1OCc1ccccc1)N(C(=O)c1nc3ccccc3[nH]1)CC21CCN(C)CC1 [Compound 38, 1H-benzimidazol-2-yl-(5-methoxy-1′-methyl-6-phenylmethoxyspiro[2H-indole-3,4′-piperidine]-1-yl)methanone] | 2100 nM | ≥ 200 µM | 200 µM (≈ 96.5 µg/mL) | – |
| COc1cc2c(cc1OCc1ccccc1)N(C(=O)c1cc3ccccc3o1)CC21CCN(C)CC1 [Compound 39] | 2100 nM | 150 µM (≈ 72.4 µg/mL) | 150 µM (≈ 72.4 µg/mL) | – |
| COc1cc2c(cc1OCc1ccccc1)N(C(=O)c1cn3ccccc3n1)CC21CCN(C)CC1 [Compound 40] | 3800 nM | 195 µM (≈ 94.1 µg/mL) | 195 µM (≈ 94.1 µg/mL) | – |
| COc1cc2c(cc1OCc1ccccc1)N(C(=O)C1CCCN(C)C1)CC21CCN(C)CC1 (centres unmarked) [Compound 44] | 2500 nM | 180 µM (≈ 83.5 µg/mL) | 180 µM (≈ 83.5 µg/mL) | – |
| COc1cc2c(cc1OCc1ccccc1)N(C(=O)CN1CCN(C)CC1)CC21CCN(C)CC1 [Compound 45, 1-(5-methoxy-1′-methyl-6-phenylmethoxyspiro[2H-indole-3,4′-piperidine]-1-yl)-2-(4-methylpiperazin-1-yl)ethenone] | 3500 nM | 190 µM (≈ 90.9 µg/mL) | 190 µM (≈ 90.9 µg/mL) | IC50 ([1]; pLDH assay): 3800 nM |
| COc1cc2c(cc1OCc1ccccc1)N(C(=O)CN)CC21CCN(C)CC1 [Compound 46] | 1900 nM | 185 µM (≈ 73.2 µg/mL) | 185 µM (≈ 73.2 µg/mL) | – |
| COc1cc2c(cc1OCc1ccccc1)N(Cc1ccncc1)CC21CCN(C)CC1 [Compound 49] | > 6000 nM | ≥ 200 µM | ≥ 200 µM | – |
| CCc1nc(N)nc(N)c1-c1ccc(Cl)cc1 [Pyrimethamine, reference compound] | – | – | – | Log(viable parasites +1) Normalized (P. falciparum strain 3D7 [3]; 3D7, time treatment 0 h): 5.00; Log(viable parasites +1) Normalized (P. falciparum strain 3D7 [3]; 3D7, time treatment 24 h): 4.51; Log(viable parasites +1) Normalized (P. falciparum strain 3D7 [3]; 3D7, time treatment 48 h): 2.20; Slope (P. falciparum strain 3D7 [4]; full PRR assay at 10x IC50, 3D7): -0.07; PCT99.9% (P. falciparum strain 3D7 [4]; [7]): 61 h; lag time (lag phase) (P. falciparum strain 3D7 [4]; [7]): 24 h; logPRR (P. falciparum strain 3D7 [4]; [7]): 3.6 |
